# Results from article PMC6151599, “Intestinal Absorption of Triterpenoids and Flavonoids from Glycyrrhizae radix et rhizoma in the Human Caco-2 Monolayer Cell Model” (Molecules : A Journal of Synthetic Chemistry and Natural …, 2017).
# “Also recorded” adds a separate entry of the source. Read-outs that look alike come from different tables or passages of the source.
# What was measured:
# Caco-2 cell monolayer [1] = experiment: Bidirectional transport (Papp) across Caco-2 cell monolayer; assay type: in vitro ADME, human; details: for Absorption designation: from Caco-2 Papp compared with propranolol and atenolol; for Time course of bilateral permeation: 0–180 min at 50 μM; for Transport mechanism / Efflux Ratio (Papp BL→AP to Papp AP→BL): Caco-2 monolayer; for Efflux Ratio (Papp BL→AP to Papp AP→BL): 90 min; for Concentration dependence of rate of membrane permeation: at 90 min within test range of concentration
# Procedure: (§1) The Caco-2 cell monolayer permeability was carried out according to the previously reported method. Briefly, the Caco-2 cells were maintained in DMEM containing 10% FBS, 1% NEAA, 100 units/mL of penicillin, and 100 µg/mL of streptomycin, in a constant humidity atmosphere of 5% CO2 and 95% air at 37 °C. For confluence and differentiation, cells were seeded at a density of 1 × 10^5 cells/cm^2 into 12-well Transwell plates (insert diameter 12 mm, pore size 3.0 μm, membrane growth area 1.12 cm^2, Costar® #3402) and were allowed to grow for 21 days before the permeation experiment. On day 21, the monolayers with TEER values > 500 Ω·cm^2 were qualified for the transport experiment. The transport study was initiated by the careful removal of the culture medium from AP and BL sides of the inserts. Caco-2 monolayers were rinsed twice with pre-warmed HBSS and were incubated by pre-warmed HBSS for 30 min at 37 °C. […] The assayed solutions (50 µM) were added to the AP side (0.5 mL, for absorption transport) or BL side (1.5 mL, for efflux transport) of the inserts, while the receiving chamber contained the corresponding volume of HBSS. Incubation was performed at 37 °C for 90 min, with shaking at 50 rpm. Samples were collected from the inserts and lyophilized. The dried sample was then sonicated with the appropriate volume of MeOH, followed by centrifugation at 15,000× g for 10 min. The supernatant was filtered through a 0.45 μm filter and injected into HPLC system for quantitative analysis.
# (§2) The AP to BL or BL to AP permeability coefficient (Papp) value of each compound was calculated based on the following equation:Papp = (dQ/dt) × (1/A) × (1/C0) (cm/s)(1) where dQ/dt is the rate of the appearance of the test compound on the receiver compartment (μmol/s), C0 is the initial test compound concentration on the donor compartment (μmol/mL), and A is the surface area of Caco-2 monolayer (cm^2).
# (§3) While shaking the samples (37 °C, 50 rpm), 1.3 mL aliquots were taken from BL side or 0.45 mL aliquots were taken from AP side at 30 min intervals from […].
# (§4) After shaking the samples (37 °C, 50 rpm) in a shaking water bath for 90 min, aliquots were collected as described above.
# [2] = as above; assay type: in vitro ADME, human; details: human; for Papp at 90 min, 50 µM / Papp A→B at 90 min, 50 µM / Papp B→A at 90 min, 50 µM: Caco-2 monolayer; for Papp at 90 min, 50 µM: both directions; for efflux ratio at 90 min, 50 µM: Caco-2, Caco-2 monolayer, read-out: Efflux Ratio (Papp BL→AP to Papp AP→BL); for Papp A→B at 90 min, 50 µM / Papp B→A at 90 min, 50 µM: incubation up to 90 min, n = 3
# Procedure: as §1, §2, §3, §4
# [3] = Intracellular accumulation and total recovery (mass balance) at the end of transport; assay type: in vitro ADME, human; details: human, Caco-2, end of transport, n = 3
# Procedure: (§5) To measure the amount of intracellular accumulation, the Caco-2 cells were rinsed three times with ice-cold HBSS at the end of transport experiments. After three freeze (−20 °C)-thaw (room temperature) cycles, the lysed Caco-2 cells were lyophilized. The dried cells were sonicated in 0.2 mL of 70% aqueous MeOH for 20 min and then centrifuged at 15,000× g for 10 min. The supernatant was filtered through a 0.45 μm filter and a 10 μL aliquot was injected into the HPLC system for analysis. To check the mass balance, the recoveries of the assayed compounds were measured at both sides of the insert and intracellular accumulation of the Caco-2 cells.
# Caco-2 cell monolayer [4] = experiment: as above; assay type: in vitro ADME, human
# Procedure: as §5
# Caco-2 cell monolayer [5] = details: cited from earlier work; for Absorption designation: from previously reported Caco-2 Papp
# [6] = Bidirectional transport (Papp) across Caco-2 cell monolayer; assay type: in vitro ADME; details: human, ratio of previously reported Papp values (refs 35, 36), read-out: Efflux Ratio (Papp BL→AP to Papp AP→BL)
# [7] = end of transport, n = 3, –: not detected
Structure (SMILES),"Papp at 90 min, 50 µM [2] [×10⁻⁶ cm/s]","efflux ratio at 90 min, 50 µM [2]","Papp A→B at 90 min, 50 µM [2] [×10⁻⁶ cm/s]","Papp B→A at 90 min, 50 µM [2] [×10⁻⁶ cm/s]",recovery ([3]; read-out: Total recovery AP→BL) [%],recovery ([3]; read-out: Total recovery BL→AP) [%],also measured
"CC1(C)[C@@H](O[C@H]2O[C@H](C(=O)O)[C@@H](O)[C@H](O)[C@H]2O[C@@H]2O[C@H](C(=O)O)[C@@H](O)[C@H](O)[C@H]2O)CC[C@]2(C)[C@H]3C(=O)C=C4[C@@H]5C[C@@](C)(C(=O)O)CC[C@]5(C)CC[C@@]4(C)[C@]3(C)CC[C@@H]12 [Compound 1, glycyrrhizin]",< 0.1,–,–,–,–,–,"Detection of compound in the receiving side (Caco-2 cell monolayer [1]; after incubation for 90 min, AP→BL and BL→AP): not detected; also recorded: below the lower limit of detection; Absorption designation (Caco-2 cell monolayer [1]): very poorly absorbed; also recorded: poorly absorbed"
"C=CC(C)(C)c1cc(/C=C/C(=O)c2ccc(O)cc2)c(OC)cc1O [Compound 4, licochalcone A]",–,1.06,1.68 ± 0.13,1.78 ± 0.03,81.88 ± 0.67,90.4 ± 2.74,"Absorption designation (Caco-2 cell monolayer [1]): moderately absorbed; Cell accumulation / intracellular uptake (in words) (Caco-2 cell monolayer [4]; all bidirectional transport): higher intracellular uptake; also recorded: higher accumulation; Total recovery AP→BL (Caco-2 cell monolayer [4]; end of transport, n = 3): relatively lower; CA (cell accumulation) AP→BL (Caco-2 cell monolayer [4]; [7]): 50.52 ± 1.88%; CA (cell accumulation) BL→AP (Caco-2 cell monolayer [4]; [7]): 42.56 ± 2.36%"
"COc1c(/C=C/C(=O)c2ccc(O)cc2)ccc(O)c1O [Compound 5, licochalcone B]",–,1.22,24.7 ± 2.8,30.2 ± 2.4,96.2 ± 0.19,94.5 ± 2.89,–
"COc1cc(O)ccc1/C=C/C(=O)c1ccc(O)cc1 [Compound 7, echinatin]",–,1.15,20.7 ± 1,23.8 ± 0.3,96.9 ± 2.67,97.7 ± 3.29,–
"O=C(/C=C/c1ccc(O)cc1)c1ccc(O)cc1O [Compound 11, isoliquiritigenin]",–,–,–,–,–,–,Papp BL→AP (Caco-2 cell monolayer [5]; Caco-2 monolayer): 9.35 ± 0.43 ×10^−6 cm/s
"O=C(/C=C/c1ccc(O[C@@H]2O[C@H](CO)[C@@H](O)[C@H](O)[C@H]2O)cc1)c1ccc(O)cc1O [Compound 12, isoliquiritin]",–,–,–,–,–,–,Papp AP→BL (Caco-2 cell monolayer [5]; Caco-2 monolayer): 0.87 ± 0.02 ×10^−6 cm/s; Papp BL→AP (Caco-2 cell monolayer [5]; Caco-2 monolayer): 0.77 ± 0.07 ×10^−6 cm/s; Papp from AP to BL direction (Caco-2 cell monolayer [5]; Caco-2 monolayer): (8.69 ± 0.15) × 10^−7 cm/s; Papp from BL to AP direction (Caco-2 cell monolayer [5]; Caco-2 monolayer): (7.68 ± 0.66) × 10^−7 cm/s; Papp values (bidirectional) (Caco-2 cell monolayer [5]; Caco-2 monolayer): ≤ 1e-07 cm/s; Absorption designation (Caco-2 cell monolayer [5]): poorly absorbed; efflux ratio [6]: 0.89
"O=C1C[C@@H](c2ccc(O[C@@H]3O[C@H](CO)[C@@H](O)[C@H](O)[C@H]3O)cc2)Oc2cc(O)ccc21 [Compound 13, liquiritin]",–,–,–,–,–,–,Papp AP→BL (Caco-2 cell monolayer [5]; Caco-2 monolayer): 0.54 ± 0.02 ×10^−6 cm/s; Papp BL→AP (Caco-2 cell monolayer [5]; Caco-2 monolayer): 0.53 ± 0.03 ×10^−6 cm/s; Papp from BL to AP direction (Caco-2 cell monolayer [5]; Caco-2 monolayer): (5.32 ± 0.31) × 10^−7 cm/s; Papp values (bidirectional) (Caco-2 cell monolayer [5]; Caco-2 monolayer): ~1e-07 cm/s; Absorption designation (Caco-2 cell monolayer [5]): poorly absorbed; efflux ratio [6]: 0.98
"CC(C)NCC(O)COc1cccc2ccccc12 (stereo not shown) [propranolol, reference compound]",–,–,–,–,–,–,"Papp ([2]; Caco-2, read-out: Papp of transport markers): 25.1 ×10⁻⁶ cm/s"

# Continued, in another order:
"Papp at 90 min, 50 µM [2] [×10⁻⁶ cm/s]","efflux ratio at 90 min, 50 µM [2]","Papp A→B at 90 min, 50 µM [2] [×10⁻⁶ cm/s]","Papp B→A at 90 min, 50 µM [2] [×10⁻⁶ cm/s]",recovery ([3]; read-out: Total recovery AP→BL) [%],recovery ([3]; read-out: Total recovery BL→AP) [%],Structure (SMILES),also measured
~1,1.06 to 1.11,1.55 ± 0.09,1.65 ± 0.95,97.04 ± 0.36,91.6 ± 1.27,"CC1(C)[C@@H](O[C@@H]2O[C@H](C(=O)O)[C@@H](O)[C@H](O)[C@H]2O)CC[C@]2(C)[C@H]3C(=O)C=C4[C@@H]5C[C@@](C)(C(=O)O)CC[C@]5(C)CC[C@@]4(C)[C@]3(C)CC[C@@H]12 [Compound 2, glycyrrhetic acid-3-O-mono-β-D-glucuronide]",Time course of bilateral permeation (Caco-2 cell monolayer [1]): increased approximately linearly; Transport mechanism (Caco-2 cell monolayer [1]): passive diffusion; Efflux Ratio (Papp BL→AP to Papp AP→BL) (Caco-2 cell monolayer [1]): 1.06; Concentration dependence of rate of membrane permeation (Caco-2 cell monolayer [1]): increased approximately linearly; Absorption designation (Caco-2 cell monolayer [1]): moderately absorbed
> 10,1.06 to 1.11,12.6 ± 0.4,14 ± 1.3,85.1 ± 2.33,98.24 ± 0.59,"CC1(C)[C@@H](O)CC[C@]2(C)[C@H]3C(=O)C=C4[C@@H]5C[C@@](C)(C(=O)O)CC[C@]5(C)CC[C@@]4(C)[C@]3(C)CC[C@@H]12 [Compound 3, glycyrrhetinic acid]",Time course of bilateral permeation (Caco-2 cell monolayer [1]): increased approximately linearly; Transport mechanism (Caco-2 cell monolayer [1]): passive diffusion; Efflux Ratio (Papp BL→AP to Papp AP→BL) (Caco-2 cell monolayer [1]): 1.11; Concentration dependence of rate of membrane permeation (Caco-2 cell monolayer [1]): increased approximately linearly; CA (cell accumulation) AP→BL (Caco-2 cell monolayer [4]; [7]): 0.25 ± 0.01%
–,1.17,22.5 ± 1,26.4 ± 1.3,97.5 ± 1.26,96.1 ± 4.55,"COc1c(/C=C/C(=O)c2ccc(O)cc2)ccc(O)c1CC=C(C)C [Compound 6, licochalcone C]",–
~10,0.88,17.8 ± 0.6,15.7 ± 0.3,87 ± 2.78,94.8 ± 4.29,"O=C1C[C@@H](c2ccc(O)cc2)Oc2cc(O)ccc21 [Compound 9, liquiritigenin]",Time course of bilateral permeation (Caco-2 cell monolayer [1]): increased approximately linearly; Concentration dependence of rate of membrane permeation (Caco-2 cell monolayer [1]): increased approximately linearly
